The results in this text go back to patent US20100286145A1, “ISOPHTHALAMIDE DERIVATIVES INHIBITING BETA-SECRETASE ACTIVITY” (CoMentis, Inc., priority 2007, published 2010).

Where two headings read alike, the source gives them in different places.

The target in one assay is memapsin 2 (Homo sapiens, UniProt P56817). The experiment in a line: Inhibition of memapsin 2 beta-secretase activity (fluorogenic substrate FS-2). It counts as biochemical. As to conditions: memapsin 2, pH 4, 37° C. Put shortly: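 Memapsin 2 pre-incubated 20 min with compound at pH 4, 37° C, then FS-2 substrate (MCA-SEVNLDAEFK-DNP, APP Swedish cleavage site) added. Rate of fluorescence increase compared with uninhibited controls, fitted to a tight-binding inhibition model.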
Chain of memapsin 2 (P56817 46-501): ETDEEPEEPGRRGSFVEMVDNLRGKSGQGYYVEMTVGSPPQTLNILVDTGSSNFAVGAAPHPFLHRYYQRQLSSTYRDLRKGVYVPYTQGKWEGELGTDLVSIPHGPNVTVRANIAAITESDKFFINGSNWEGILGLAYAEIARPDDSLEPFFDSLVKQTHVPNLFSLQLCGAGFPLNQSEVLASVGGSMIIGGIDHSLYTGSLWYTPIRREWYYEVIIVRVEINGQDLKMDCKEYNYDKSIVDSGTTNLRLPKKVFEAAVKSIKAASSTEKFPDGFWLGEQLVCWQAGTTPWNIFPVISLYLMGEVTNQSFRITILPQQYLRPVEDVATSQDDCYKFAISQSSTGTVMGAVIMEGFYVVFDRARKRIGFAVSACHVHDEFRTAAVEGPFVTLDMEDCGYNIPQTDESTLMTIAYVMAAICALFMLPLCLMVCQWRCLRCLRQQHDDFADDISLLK

For a further assay, the target named is T1, memapsin 1 (Homo sapiens, UniProt Q9Y5Z0).
T1 sequence (Q9Y5Z0 63-518): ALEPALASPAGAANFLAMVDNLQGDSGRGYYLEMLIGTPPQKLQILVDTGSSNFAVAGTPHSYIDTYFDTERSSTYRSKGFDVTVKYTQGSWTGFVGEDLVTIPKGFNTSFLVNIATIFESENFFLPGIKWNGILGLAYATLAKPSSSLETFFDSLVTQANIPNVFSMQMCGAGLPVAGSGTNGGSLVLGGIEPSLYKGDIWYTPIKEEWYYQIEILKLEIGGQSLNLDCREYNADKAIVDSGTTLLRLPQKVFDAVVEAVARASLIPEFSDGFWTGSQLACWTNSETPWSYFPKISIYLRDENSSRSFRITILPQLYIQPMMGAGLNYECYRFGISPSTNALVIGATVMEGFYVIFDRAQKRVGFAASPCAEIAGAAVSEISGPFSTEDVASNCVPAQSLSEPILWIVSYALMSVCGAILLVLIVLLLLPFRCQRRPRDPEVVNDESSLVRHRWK
Put plainly: Inhibition of memapsin 1 beta-secretase activity (substrate peptide ELDLAVEFWHDR, MALDI-TOF). It counts as biochemical.

Another assay has as its target cathepsin D (Homo sapiens, UniProt P07339). Put plainly: Inhibition of cathepsin D activity (substrate peptide ELDLAVEFWHDR, MALDI-TOF). The assay is classed as biochemical.
Assay [1] has as its system Aβ production in Chinese hamster ovary cells that over-express human APP695 with the London and Swedish mutations. Put plainly: Cellular Aβ IC50 determination (Aβ40 sandwich ELISA). The assay is classed as cell-based. The following applies: Cricetulus griseus. Put shortly:
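CHO cells overexpressing human APP695 with London and Swedish mutations, seeded at 10% confluency, treated with compounds up to about 4 μM final (0.4% DMSO). Secreted Aβ40 measured by sandwich ELISA relative to control and fitted to a 4-parameter IC50 model.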
Background: An ELISA detects its analyte on a solid surface through an enzyme-linked reagent.

The mark [2] stands for this setting: 20 minutes pre-incubation, read-out: M2Ki.
Where [3] appears, read: cellular Aβ production, read-out: IC50.

Chain of cathepsin D (P07339 65-412, species assumed): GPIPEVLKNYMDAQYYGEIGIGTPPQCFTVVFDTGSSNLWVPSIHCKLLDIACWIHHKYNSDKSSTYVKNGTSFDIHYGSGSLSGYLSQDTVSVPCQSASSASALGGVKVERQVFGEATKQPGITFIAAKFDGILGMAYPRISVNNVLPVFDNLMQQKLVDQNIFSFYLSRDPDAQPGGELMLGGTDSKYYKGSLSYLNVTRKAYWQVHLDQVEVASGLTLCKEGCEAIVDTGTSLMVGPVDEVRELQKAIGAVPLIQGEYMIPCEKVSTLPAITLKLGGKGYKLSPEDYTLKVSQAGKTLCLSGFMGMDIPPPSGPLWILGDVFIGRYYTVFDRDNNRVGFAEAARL

As usually defined, the IC50 is the midpoint of a concentration-inhibition curve. Consider `Cc1cc(C(=O)N[C@@H](Cc2ccccc2)[C@H](O)CNCc2cncc(C(C)C)c2)cc(C(=O)N(Cc2nc(C)cs2)C2CC2)c1` [Compound 41, N1-cyclopropyl-N3-((2S,3R)-3-hydroxy-4-((5-isopropylpyridin-3-yl)methylamino)-1-phenylbutan-2-yl)-5-methyl-N1-((4-methylthiazol-2-yl)methyl)isophthalamide], for which the Ki at memapsin 2 (setting [2]), on memapsin 1 (read-out: M1Ki) and at cathepsin D (read-out: CDKi) was under 300 nM in each case. For the same molecule, in assay [1] (setting [3]), the IC50 was under 1000 nM.

On to `COc1cccc(CNC[C@@H](O)[C@H](Cc2ccccc2)NC(=O)c2cc(C(=O)N(C)Cc3nc(C)cs3)cc(C3=NCCO3)c2)c1` [Compound 46, 5-(4,5-dihydrooxazol-2-yl)-N1-((2S,3R)-3-hydroxy-4-(3-methoxybenzylamino)-1-phenylbutan-2-yl)-N3-methyl-N3-((4-methylthiazol-2-yl)methyl)isophthalamide], for which the Ki on memapsin 2 (setting [2]) is under 300 nM; at memapsin 1 (read-out: M1Ki) it was over 501 nM; on cathepsin D (read-out: CDKi) it was 301 to 500 nM. Further, in assay [1] (setting [3]), the IC50 was under 1000 nM.

With `C[C@@H](NC(=O)c1cc(C(=O)N[C@@H](Cc2ccccc2)[C@H](O)CNCc2cccc(O)c2)cc(N(C)S(C)(=O)=O)c1)c1ccccc1` [Compound 71, N1-((2S,3R)-3-hydroxy-4-(3-hydroxybenzylamino)-1-phenylbutan-2-yl)-5-(N-methylmethylsulfonamido)-N3-((R)-1-phenylethyl)isophthalamide], the values for the Ki at memapsin 2 (setting [2]), on memapsin 1 (read-out: M1Ki) and on cathepsin D (read-out: CDKi) were under 300 nM, over 501 nM and over 501 nM, respectively. In addition, in assay [1] (setting [3]), the IC50 was under 1000 nM.

Take `COc1cc(CNC[C@@H](O)[C@H](Cc2ccccc2)NC(=O)c2cccc(C(=O)N(C)Cc3nc(C)cs3)c2)cc(C(=O)O)c1` [Compound 72, 3-(((2R,3S)-2-hydroxy-3-(3-(methyl((4-methylthiazol-2-yl)methyl)carbamoyl)benzamido)-4-phenylbutylamino)methyl)-5-methoxybenzoic acid]: the figures for the Ki on memapsin 2 (setting [2]), on memapsin 1 (read-out: M1Ki) and at cathepsin D (read-out: CDKi) were under 300 nM, over 501 nM and over 501 nM, respectively. The IC50 in assay [1] (setting [3]) lay within 1000 to 5000 nM.

Turning to `C[C@@H](NC(=O)c1cc(C(=O)N[C@@H](Cc2ccccc2)[C@H](O)CNCc2cncc(C(F)(F)F)c2)cc(N(C)S(C)(=O)=O)c1)c1ccccc1` [Compound 81, N1-((2S,3R)-3-hydroxy-1-phenyl-4-((5-(trifluoromethyl)pyridin-3-yl)methylamino)butan-2-yl)-5-(N-methylmethylsulfonamido)-N3-((R)-1-phenylethyl)isophthalamide], the Ki at memapsin 2 (setting [2]) was under 300 nM; at memapsin 1 (read-out: M1Ki) it was under 300 nM; on cathepsin D (read-out: CDKi), over 501 nM. For the same molecule, the IC50 in assay [1] (setting [3]) is under 1000 nM.

Take `Cc1csc([C@@H](C)N(C)C(=O)c2cccc(C(=O)N[C@@H](Cc3ccccc3)[C@H](O)CNCc3cncc(C(C)C)c3)c2)n1` [Compound 82, N1-((2S,3R)-3-hydroxy-4-((5-isopropylpyridin-3-yl)methylamino)-1-phenylbutan-2-yl)-N3-methyl-N3-((R)-1-(4-methylthiazol-2-yl)ethyl)isophthalamide]: the Ki at memapsin 2 (setting [2]) was under 300 nM; at memapsin 1 (read-out: M1Ki), 301 to 500 nM; at cathepsin D (read-out: CDKi) it was 301 to 500 nM. The IC50 in assay [1] (setting [3]) was under 1000 nM.

With `C[C@@H](NC(=O)c1cc(C(=O)N[C@@H](Cc2ccccc2)[C@H](O)CNCc2cccc(Cl)c2)cc(N(C)S(C)(=O)=O)c1)c1ccccc1` [Compound 86, N1-((2S,3R)-4-(3-chlorobenzylamino)-3-hydroxy-1-phenylbutan-2-yl)-5-(N-methylmethylsulfonamido)-N3-((R)-1-phenylethyl)isophthalamide], the Ki at memapsin 2 (setting [2]) was under 300 nM; at memapsin 1 (read-out: M1Ki) it was under 300 nM; at cathepsin D (read-out: CDKi), 301 to 500 nM. Moreover, the IC50 in assay [1] (setting [3]) is under 1000 nM.

`C[C@@H](NC(=O)c1cc(C(=O)N[C@@H](Cc2ccccc2)[C@H](O)CNCc2cccc(I)c2)cc(N(C)S(C)(=O)=O)c1)c1ccccc1` [Compound 88, N1-((2S,3R)-3-hydroxy-4-(3-iodobenzylamino)-1-phenylbutan-2-yl)-5-(N-methylmethylsulfonamido)-N3-((R)-1-phenylethyl)isophthalamide]: the Ki on memapsin 2 (setting [2]), on memapsin 1 (read-out: M1Ki) and at cathepsin D (read-out: CDKi) was under 300 nM throughout. Further, the half-inhibitory concentration (IC50) in assay [1] (setting [3]) was under 1000 nM.

For `C[C@@H](NC(=O)c1cc(C(=O)N[C@@H](Cc2ccccc2)[C@H](O)CNCc2cncc(C(C)(C)F)c2)cc(N(C)S(C)(=O)=O)c1)c1ccccc1` [Compound 89, N1-((2S,3R)-4-((5-(2-fluoropropan-2-yl)pyridin-3-yl)methylamino)-3-hydroxy-1-phenylbutan-2-yl)-5-(N-methylmethylsulfonamido)-N3-((R)-1-phenylethyl)isophthalamide], the Ki on memapsin 2 (setting [2]), at memapsin 1 (read-out: M1Ki) and at cathepsin D (read-out: CDKi) was under 300 nM in each case. Moreover, the IC50 in assay [1] (setting [3]) was under 1000 nM.

Take `Cc1csc(CN(C)C(=O)c2cccc(C(=O)N[C@@H](Cc3ccccc3)[C@H](O)CNCc3cc(C(C)C)cc(N(C)C)c3)c2)n1` [Compound 90, N1-((2S,3R)-4-(3-(dimethylamino)-5-isopropylbenzylamino)-3-hydroxy-1-phenylbutan-2-yl)-N3-methyl-N3-((4-methylthiazol-2-yl)methyl)isophthalamide]: the figures for the Ki at memapsin 2 (setting [2]), on memapsin 1 (read-out: M1Ki) and on cathepsin D (read-out: CDKi) were under 300 nM, over 501 nM and under 300 nM, respectively. Moreover, the IC50 in assay [1] (setting [3]) is under 1000 nM.

Regarding `Cc1cc(C(=O)N[C@@H](Cc2ccccc2)[C@H](O)CNCc2cncc(C(C)C)c2)cc(C(=O)N(C)Cc2nc(C)cs2)c1` [N1-((2S,3R)-3-hydroxy-4-((5-isopropylpyridin-3-yl)methylamino)-1-phenylbutan-2-yl)-N3,5-dimethyl-N3-((4-methylthiazol-2-yl)methyl)isophthalamide], the Ki at memapsin 2 (read-out: M2 Ki) came out at 16.8 nM; at memapsin 1 (read-out: M1 Ki), 264 nM; on cathepsin D (read-out: CathD Ki), 32.3 nM. In addition, the half-maximal inhibitory concentration (IC50) in assay [1] (CHO cells, 24 h incubation, Aβ40, read-out: IC50 (cellular Aβ production)) was found to be 6 nM.
